US20220401459A1, “NEW APPLICATION OF CHEMOKINE RECEPTOR CCR6 INHIBITOR IN PREVENTING RECURRENCE OF PSORIASIS” (RUIJIN HOSPITAL, SHANGHAI JIAOTONG UNIVERSITY SCHOOL OF …, priority 2019, published 2022)
“Also recorded” adds a separate entry of the source.

How the values were obtained:
[1] = system: imiquimod (IMQ)-induced mouse psoriasis model; test: Imiquimod (IMQ)-induced mouse psoriasis model: GC treatment, withdrawal, re-induced recurrence; format: in vivo; settings: for proportion of γδT17 (IL-17-secreting) cells in lymph nodes: after drug administration was stopped (2 weeks); for recurrence of psoriasis: psoriasis re-induced with IMQ after withdrawal
Description: (§1) In this example, an animal model to simulate clinical GC treatment for psoriasis was established (FIG. 2a). An imiquimod (IMQ)-induced mouse psoriasis model was utilized to simulate the whole clinical process of topical glucocorticoid treatment in patients with psoriasis: administering of drug—stop administering—recurrence of disease.
(§2) All mice were smeared with IMQ for three weeks. Among them, from the 6th day, GC or petrolatum (Vas) was applied to the skin of the mice, and all treatments were stopped on the 21st day. Mice entered a 2-week drug withdrawal period, after which IMQ was applied again for 7 consecutive days to induce psoriasis recurrence.
In order to simulate the clinical withdrawal period, all mice in the experimental group and the control group were rested for 2 weeks without treatment.
In this example, IMQ was applied to the mice in the experimental group and the control group again to simulate the recurrence of psoriasis after clinical withdrawal.

[2] = system: patients with psoriasis vulgaris; test: Psoriasis vulgaris patients, topical GC for 2 weeks, then stopped until relapse (flow cytometry, RNA-seq); format: in vivo, human
Procedure: In this example, patients with psoriasis vulgaris were recruited and glucocorticoids (GC) were topically (externally) administered for 2 weeks of treatment. Thereafter, the administration were stopped until the disease relapsed, and further research on the mechanism of psoriasis recurrence was carried out.
Transcriptome sequencing (RNA-seq) was performed on the skin lesions of these patients before GC treatment, after GC treatment, and after disease recurrence.
In this example, in psoriasis patients receiving GC treatment, the changes in the proportion of CD3+ T cells and T17 cells in the skin and peripheral blood before treatment, after treatment and during recurrence were detected.

[3] = system: imiquimod (IMQ)-induced mouse psoriasis model; test: Imiquimod (IMQ)-induced mouse psoriasis model: GC treatment, withdrawal, re-induced recurrence; format: in vivo; settings: imiquimod replaced by mannan for inducing recurrence
[4] = system: wild-type mice (WT), CCR6−/−, and CCR2−/− mice; test: GC treatment and IMQ re-challenge in WT, CCR6−/− and CCR2−/− mice; format: in vivo, mouse
Description: as §1, §2
Cytokine receptors CCR6 and CCR2 are known to mediate the migration of γδT17 cells in the occurrence of skin inflammation. In this example, the above-mentioned mechanism was studied in wild-type mice (WT), CCR6^−/−, and CCR2^−/− mice.

[5] = after treatment and during recurrence
[6] = before, after treatment and during recurrence
[7] = 2 weeks after withdrawal, vs control group
[8] = TCRd−/− mice, IMQ re-challenge, GC vs Vas
[9] = CCR6−/− mice, after GC treatment
[10] = CCR6−/− mice, re-challenge with IMQ

**Q.** With `CCCCCCCCc1ccc(CCC(N)(CO)CO)cc1` [FTY720] as the compound, how does the “migration of γδT17 cells from the draining lymph nodes” value ([1]; GC group, recurrence) read?
**A.** prevented

**Q.** And the “rapid recurrence of psoriasis” value ([1]; mice in the GC group given FTY720)?
**A.** did not appear rapid recurrence

**Q.** Which results are given for `C[C@@H]1C[C@H]2[C@@H]3C[C@H](F)C4=CC(=O)C(Cl)=C[C@]4(C)[C@@]3(F)[C@@H](O)C[C@]2(C)[C@@]1(O)C(=O)CO` [halometasone]?
**A.** expression of chemokines CCL20, CCL5, CCL2, CXCL10 in skin lesions (RNA-seq) [2, 5]: decreased after treatment and increased during recurrence; expression of psoriasis-related genes (IL-17, IL-23) in skin lesions [2, 5]: decreased after treatment, but increased during recurrence; expression of psoriasis-related genes (IL-17, IL-23) in skin lesions ([2]; after treatment and during recurrence, listed as GC): down-regulated; proportion of IL-17-producing T cells (T17 cells) in skin lesions [2, 6]: decreased after treatment and increased during recurrence; proportion of IL-17-producing cells (T17 cells) in peripheral blood [2, 6]: increased after treatment and decreased during recurrence; proportion of IL-17-producing T cells (T17 cells) in skin lesions ([2]; before, after treatment and during recurrence, listed as GC): decreased; control of psoriasis ([2]; topical treatment): quickly and effectively control psoriasis; proportions of γδT, Vγ4, Vγ4Vδ4 cells in draining and distant lymph nodes ([1]; 2 weeks after withdrawal): remained unchanged or slightly increased; neutrophils infiltrated in the skin ([1]; 2 weeks after withdrawal, vs Vas control group): more neutrophils were infiltrated; proportion of γδT17 in the skin [1, 7]: also lower; proportions of CD3, γδT, Vγ4Vδ4 in the skin [1, 7]: still lower; levels of IL-17 secreted by CD3 and γδT cells in the skin ([1]; IMQ re-challenge, GC vs Vas): not significantly different; proportions of CD3 and γδT cells in the skin ([1]; IMQ re-challenge, GC vs Vas): not significantly different; proportions of IL-17 secreted by γδT, Vγ4, Vγ4Vδ4 cells in distant lymph nodes ([1]; IMQ re-challenge, GC vs Vas): significantly lower; proportions of Vγ4T17 and Vγ4Vδ4T17 cells in the skin ([1]; IMQ re-challenge, GC vs Vas): slightly decreased; γδT17 in skin draining lymph nodes ([1]; IMQ re-challenge, GC vs Vas): no difference; infiltrated neutrophils in the skin ([1]; IMQ re-challenge, vs Vas control group): exceeded; epidermal thickening fold ([1]; IMQ re-challenge, vs Vas group): also higher; neutrophils infiltrated in the skin ([1]; TCRd−/− mice, 2 weeks after withdrawal, GC vs Vas): no difference; ear / epidermal thickening [1, 8]: no difference; infiltrated neutrophils in the skin [1, 8]: opposite results; neutrophil infiltration in the skin ([1]; TCRd−/− mice, after treatment, experimental vs control group): no statistical difference; proportion of γδT17 cells in lymph nodes after stimulation ([1]; after drug administration was stopped): still significantly increased; proportion of γδT17 (IL-17-secreting) cells in lymph nodes [1]: still significantly increased; proportion of γδT17 (IL-17-secreting) cells in lymph nodes ([1]; listed as GC): significantly increased; IL-17 secretion by Vγ4 cells and Vγ4Vδ4 cells in draining lymph nodes ([1]; after treatment): secreted more IL-17; dermal γδT cells, especially Vγ4Vδ4 cells, in the skin ([1]; after treatment): significantly reduced; proportion of CD3+ T cells in the skin ([1]; after treatment): significantly reduced; proportion of IL-17 secretion of γδT, Vγ4, Vγ4Vδ4 cells in distal lymph nodes ([1]; after treatment): also higher; proportion of Vγ4 cells in skin-draining lymph nodes ([1]; after treatment): increased; proportion of γδT17 cells in draining and distal lymph nodes ([1]; after treatment): significantly increased; proportion of γδT cells in skin-draining lymph nodes ([1]; after treatment): decreased; proportions of IL1R expression in γδT, Vγ4, Vγ4Vδ4 cells in the skin ([1]; after treatment): all increased; proportions of γδT, Vγ4, Vγ4Vδ4 T cells in distal lymph nodes ([1]; after treatment): higher; neutrophil infiltration in the skin ([1]; after treatment, immunofluorescence and flow staining): reduced; proportion of IL-17 secretion of γδT, Vγ4, Vγ4Vδ4 cells in distal lymph nodes ([1]; after treatment, listed as GC): all increased; proportion of γδT17 cells in draining and distal lymph nodes ([1]; after treatment, listed as GC): increased in draining and distant lymph nodes; proportions of CD3, γδ, Vγ4, Vγ4Vδ4 that secreted IL-17 (γδT17) in the skin ([1]; after treatment, listed as GC): reduced; also recorded: decreased in the skin; proportions of γδT, Vγ4, Vγ4Vδ4 T cells in distal lymph nodes ([1]; after treatment, listed as GC): all increased; ear thickening speed ([1]; after using IMQ again for 3 days, vs control group): faster; ear thickness ([1]; day 21, vs control group (Vas)): significantly thinner; proportion of γδT17 cells in draining and distal lymph nodes ([1]; psoriasis re-induced with IMQ): significant decrease; recurrence of psoriasis [1]: relapsed rapidly; recurrence of psoriasis ([1]; listed as GC): more severe disease recurrence; proportion of Vγ4 and Vγ4Vδ4 T cells in the skin ([1]; psoriasis re-induced with IMQ, GC group vs Vas): higher; proportions of γδT, Vγ4, Vγ4Vδ4 cells in lymph nodes ([1]; psoriasis re-induced with IMQ, GC group vs Vas, listed as GC): varied slightly or did not change; also recorded: mild or no change; proportion of γδT17 cells in draining and distal lymph nodes ([1]; psoriasis re-induced with IMQ, listed as GC): indistinguishable or even lower; symptoms of skin psoriasis ([1]; topical treatment of ear skin inflammation): significantly relieved; rapid disease recurrence [3]: no longer had rapid disease recurrence; proportion of γδT17 cells in lymph nodes ([4]; CCR6 KO mice, recurrence after GC treatment): did not show a decrease; redistribution of γδT17 cells in vivo ([4]; CCR6 knockout mice): did not affect; ear thickness vs corresponding control [4, 9]: no significant difference; increased levels of IL-17 secreted by γδT, Vγ4, Vγ4Vδ4 cells in draining and distant sites [4, 9]: not observed; proportion of γδT cells in lymph nodes ([4]; CCR6−/− mice, after treatment): did not show an increase; disease recurrence [4, 10]: significantly suppressed; levels of IL-17 secreted by dermal γδT, Vγ4, Vγ4Vδ4 cells vs corresponding control group [4, 10]: significantly lower; proportions of γδT17, Vγ4T17, Vγ4Vδ4T17 cells in draining and distant lymph nodes (decrease) [4, 10]: not; disease recurrence ([4]; WT and CCR2 mice, re-challenge with IMQ): faster disease recurrence; ear thickness vs corresponding controls ([4]; WT and CCR2−/− mice, after GC treatment): significantly lower; levels of IL-17 secreted by CD3, γδT, Vγ4, Vγ4Vδ4 cells in the skin vs corresponding control group ([4]; WT and CCR2−/− mice, re-challenge with IMQ): no significant difference; proportions of γδT17, Vγ4T17, Vγ4Vδ4T17 cells in draining and distant lymph nodes ([4]; WT mice, re-challenge with IMQ): decreased; ear thickness ([4]; WT, CCR6−/− and CCR2−/− mice (three strains), after GC treatment): reduced; levels of IL-17 secreted by CD3, γδT, Vγ4, Vγ4Vδ4 cells in the skin ([4]; three strains of mice, after GC treatment): all reduced
